From article PMC7719383 (Clinical and Translational Science, 2020)
Like-named read-outs stand apart in the source and are kept apart here.

Tests used:
[1] = Plasma pharmacokinetics; assay type: in vivo, human; conditions: for effect of co‐administration on exposure: dinaciclib with MK‐2206; for Tmax: median
[2] = system: patients with advanced pancreatic cancer; assay type: in vivo, human
[3] = cited from earlier work
[4] = system: pSer473 Akt; conditions: lowest dose level tested (60 mg once weekly); cited from earlier work
[5] = A: Dinaciclib/combination N = 11

## CCc1cnn2c(NCc3ccc[n+]([O-])c3)cc(N3CCCC[C@H]3CCO)nc12 [dinaciclib]
[1]; African Americans and Asians vs white patients, P = 0.04
  association between exposure (Cmax) and race: lower exposure
[1]
  effect of co‐administration on exposure: did not alter
[2]; [5]
  Dose reduction Dinaciclib: 2 (18%) n (%)
[2]; B: MK‐2206/combination N = 7
  Dose reduction Dinaciclib: 0 (0%) n (%)
[2]; Dose escalation N = 21
  Dose reduction Dinaciclib: 3 (14%) n (%)
[2]; dinaciclib i.v. weekly in combination with MK‐2206
  maximum tolerated dose: 9 mg/m^2
[3]; single agent
  recommended phase II dose: 12 mg/m^2

## NC1(c2ccc(-c3nc4ccn5c(=O)[nH]nc5c4cc3-c3ccccc3)cc2)CCC1 [MK‐2206]
[1]; MK‐2206 alone, Expansion, arm B, MK‐2206 135 mg, dinaciclib 9 mg/m^2, mean ± SD
  C ss,min: 48.0 ± 22.7 (7)
[1]; MK‐2206 alone, Expansion, arm B, MK‐2206 135 mg, dinaciclib 9 mg/m^2
  Tmax: 4 (2.17–25.17; 7) hour
[1]; MK‐2206 in combination, Expansion, arm B, dose reduced, MK‐2206 90 mg, dinaciclib 9 mg/m^2, n = 1
  T 1/2: 64.5 (1) h
[1]
  effect of co‐administration on exposure: did not alter
[1]; human, plasma, oral, 90 mg, T 1/2, MK‐2206 alone, Escalation, level 3, MK‐2206 90 mg, dinaciclib 12 mg/m^2, mean ± SD
  half-life: 68.3 ± 16.6 h
[1]; human, plasma, oral, 90 mg, Tmax, MK‐2206 alone, Escalation, level 3, MK‐2206 90 mg, dinaciclib 12 mg/m^2
  Tmax: 5.97 h
[1]; human, plasma, oral, 135 mg, T 1/2, MK‐2206 alone, Escalation, level 2.5, MK‐2206 135 mg, dinaciclib 9 mg/m^2, mean ± SD
  half-life: 56.9 ± 9.7 h
[1]; human, plasma, oral, 135 mg, Tmax, MK‐2206 alone, Escalation, level 2.5, MK‐2206 135 mg, dinaciclib 9 mg/m^2
  Tmax: 4.5 h
[1]; human, plasma, oral, T 1/2, MK‐2206 in combination, Expansion, arm A, MK‐2206 135 mg, dinaciclib 9 mg/m^2, mean ± SD
  half-life: 69.7 ± 23.1 h
[1]; human, plasma, oral, Tmax, MK‐2206 in combination, Expansion, arm A, MK‐2206 135 mg, dinaciclib 9 mg/m^2
  Tmax: 10.2 h
[1]; human, plasma, oral, Tmax, MK‐2206 in combination, Expansion, arm B, MK‐2206 135 mg, dinaciclib 9 mg/m^2
  Tmax: 5.13 h
[2]; [5]
  Dose reduction MK‐2206: 0 (0%) n (%)
[2]; B: MK‐2206/combination N = 7
  Dose reduction MK‐2206: 1 (14%) n (%)
[2]; Dose escalation N = 21
  Dose reduction MK‐2206: 1 (5%) n (%)
[2]; MK‐2206 p.o. weekly in combination with dinaciclib
  maximum tolerated dose: 135 mg
[4]
  pSer473 Akt expression in tumor biopsies: significant reduction
[3]; once weekly
  recommended phase II dose: 200 mg
